Data on 17 compounds can be found in patent publication US9233964B2, “Sulfamide piperazine derivatives as protein tyrosine kinase inhibitors and pharmaceutical use therof” (LEO PHARMA A/S, priority 2011, dated 2016).

Common to all, as to type: biochemical
One assay has as its target T1, TYK2 (Homo sapiens, UniProt P29597).
T1 construct: JAK1 (aa 850-1154) and TYK2 (aa 871-1187) are expressed with an N-terminally fused GST-tag; GST (N); purchased Carna Biosciences, Inc; host or cells: baculovirus expression system
T1 sequence (P29597 871-1187): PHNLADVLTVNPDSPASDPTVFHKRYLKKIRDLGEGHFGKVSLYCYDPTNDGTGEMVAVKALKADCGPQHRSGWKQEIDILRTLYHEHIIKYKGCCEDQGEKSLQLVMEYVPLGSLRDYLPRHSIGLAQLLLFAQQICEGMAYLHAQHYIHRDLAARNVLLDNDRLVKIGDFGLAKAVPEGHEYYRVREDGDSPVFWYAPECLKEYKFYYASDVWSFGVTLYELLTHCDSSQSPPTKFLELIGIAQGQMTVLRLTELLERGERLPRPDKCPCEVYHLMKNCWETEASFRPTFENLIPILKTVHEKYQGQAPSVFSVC
Briefly: JAK kinase assay (HTRF, phosphorylation of synthetic peptide), TYK2. Conditions: catalytic domain, ATP at Km (13 μM); read-out: TYK2 kinase inhibitory activity (EC50). An outline of the steps: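 1 µM biotinylated TK peptide at Km ATP in pH 7.0 Hepes, 20-30 min RT. EDTA stop; overnight streptavidin-XL665/cryptate HTRF read.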
(Time-resolved FRET reads energy transfer from a long-lived donor to a nearby acceptor.)

The target in the next assay is T2, JAK3 (Homo sapiens, UniProt P52333).
T2 construct: All four purified enzymes contain only the catalytic domain; His (N); purchased Carna Biosciences, Inc; host or cells: baculovirus expression system
Briefly: JAK kinase assay (HTRF, phosphorylation of synthetic peptide), JAK3. Conditions: catalytic domain, ATP at Km (2 μM); read-out: JAK3 kinase inhibitory activity (EC50).

A further assay deals with T3, JAK2 (Homo sapiens, UniProt O60674).
T3 construct: All four purified enzymes contain only the catalytic domain; His (N); purchased Carna Biosciences, Inc; host or cells: baculovirus expression system
Briefly: JAK kinase assay (HTRF, phosphorylation of synthetic peptide), JAK2. Conditions: catalytic domain, ATP at Km (4 μM); read-out: JAK2 kinase inhibitory activity (EC50). Summed up: (§1)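 Catalytic-domain human JAK1 (GST-tagged, aa 850-1154) or His-tagged JAK2, baculovirus-expressed, phosphorylated 1 µM biotinylated TK peptide at Km ATP (JAK1 7 µM, 10 mM MgCl2, 50 nM SEB; JAK2 4 µM, 5 mM MgCl2) in pH 7.0 Hepes, 20-30 min RT. EDTA stop; overnight streptavidin-XL665/cryptate HTRF read.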

For another assay, the target named is T4, JAK1 (Homo sapiens, UniProt P23458).
T4 construct: JAK1 (aa 850-1154) and TYK2 (aa 871-1187) are expressed with an N-terminally fused GST-tag; GST (N); purchased Carna Biosciences, Inc; host or cells: baculovirus expression system
Briefly: JAK kinase assay (HTRF, phosphorylation of synthetic peptide), JAK1. Conditions: catalytic domain, ATP at Km (7 μM); read-out: JAK1 kinase inhibitory activity (EC50). Summed up:
as §1

T2 sequence (P52333 822-1111 limits assumed): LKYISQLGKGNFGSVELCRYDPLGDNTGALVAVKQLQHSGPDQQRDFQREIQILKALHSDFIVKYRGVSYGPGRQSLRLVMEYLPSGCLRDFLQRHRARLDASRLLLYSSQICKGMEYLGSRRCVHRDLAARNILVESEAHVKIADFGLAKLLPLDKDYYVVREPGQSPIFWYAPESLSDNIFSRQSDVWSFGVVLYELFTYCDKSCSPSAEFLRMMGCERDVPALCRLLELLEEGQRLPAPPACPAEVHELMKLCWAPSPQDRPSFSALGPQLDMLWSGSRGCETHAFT
T4 sequence (P23458 850-1154): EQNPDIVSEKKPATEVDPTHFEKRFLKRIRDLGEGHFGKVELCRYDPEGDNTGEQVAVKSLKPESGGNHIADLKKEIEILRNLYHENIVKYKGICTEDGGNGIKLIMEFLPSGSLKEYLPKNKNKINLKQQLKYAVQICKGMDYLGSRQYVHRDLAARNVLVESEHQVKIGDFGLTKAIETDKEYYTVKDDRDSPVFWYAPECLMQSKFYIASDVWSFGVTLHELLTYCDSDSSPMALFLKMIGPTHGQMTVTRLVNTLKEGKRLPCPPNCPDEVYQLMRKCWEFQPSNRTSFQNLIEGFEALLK
T3 sequence (O60674 849-1124 limits assumed): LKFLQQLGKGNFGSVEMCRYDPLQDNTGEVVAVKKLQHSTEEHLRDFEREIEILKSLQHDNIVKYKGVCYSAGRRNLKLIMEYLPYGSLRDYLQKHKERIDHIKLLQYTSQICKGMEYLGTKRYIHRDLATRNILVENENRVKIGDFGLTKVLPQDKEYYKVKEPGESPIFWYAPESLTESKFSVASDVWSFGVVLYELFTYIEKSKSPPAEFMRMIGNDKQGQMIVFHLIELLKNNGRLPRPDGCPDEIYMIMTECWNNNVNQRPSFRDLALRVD

In general, EC50 refers to the concentration giving half of the maximal effect. As to `O=S(=O)(NCC1CCC(F)(F)CC1)N1CCN(c2ncnc3[nH]ccc23)CC12CC2` [Example 148, N-[(4,4-difluorocyclohexyl)methyl]-5-(7H-pyrrolo[2,3-d]pyrimidin-4-yl)-5,8-diazaspiro[2.5]octane-8-sulfonamide], the EC50 at TYK2 is 100 to 500 nM; on JAK3, less than 100 nM; on JAK2 it was less than 100 nM; on JAK1, less than 100 nM.

As to `CN(CCOc1ccc(C#N)cc1)S(=O)(=O)N1CCN(c2ncnc3[nH]ccc23)CC12CC2` [Example 72, N-[2-(4-cyanophenoxy)ethyl]-N-methyl-5-(7H-pyrrolo[2,3-d]pyrimidin-4-yl)-5,8-diazaspiro[2.5]octane-8-sulfonamide], the EC50 at TYK2 was more than 500 nM; on JAK3, 100 to 500 nM; on JAK2, less than 100 nM; at JAK1, less than 100 nM.

Regarding `CCCC(C)NS(=O)(=O)N1CCN(c2ncnc3[nH]ccc23)CC12CC2` (centres unmarked) [Example 143, N-(1-methylbutyl)-5-(7H-pyrrolo[2,3-d]pyrimidin-4-yl)-5,8-diazaspiro[2.5]octane-8-sulfonamide], the EC50 at TYK2 was more than 500 nM; on JAK3, 100 to 500 nM; at JAK2 it was less than 100 nM; at JAK1, less than 100 nM.

As to `COc1ccc(CNS(=O)(=O)N2CCN(c3ncnc4[nH]ccc34)CC23CC3)cc1` [Example 195, N-[(4-methoxyphenyl)methyl]-5-(7H-pyrrolo[2,3-d]pyrimidin-4-yl)-5,8-diazaspiro[2.5]octane-8-sulfonamide], the EC50 on TYK2 is more than 500 nM; at JAK3 it was more than 500 nM; at JAK2 it was 100 to 500 nM; on JAK1, 100 to 500 nM.

In the case of `O=S(=O)(N1CCCCC1)N1CCN(c2ncnc3[nH]ccc23)CC12CC2` [Example 38, 4-[4-(Piperidine-1-sulfonyl)-4,7-diaza-spiro[2.5]oct-7-yl]-7H-pyrrolo[2,3-d]pyrimidine], the EC50 on TYK2 was 100 to 500 nM; at JAK3, 100 to 500 nM; on JAK2, less than 100 nM; on JAK1, 100 to 500 nM.

Take `CN(CC1CCS(=O)(=O)CC1)S(=O)(=O)N1CCN(c2ncnc3[nH]ccc23)CC12CC2` [Example 168, N-[(1,1-dioxothian-4-yl)methyl]-N-methyl-5-(7H-pyrrolo[2,3-d]pyrimidin-4-yl)-5,8-diazaspiro[2.5]octane-8-sulfonamide]: the EC50 at TYK2, at JAK3, on JAK2 and at JAK1 was less than 100 nM throughout.

For the compound `O=S(=O)(NC1CCCC1)N1CCN(c2ncnc3[nH]ccc23)CC12CC2` [Example 144, N-cyclopentyl-5-(7H-pyrrolo[2,3-d]pyrimidin-4-yl)-5,8-diazaspiro[2.5]octane-8-sulfonamide], the EC50 is 100 to 500 nM at TYK2, 100 to 500 nM on JAK3, less than 100 nM on JAK2 and less than 100 nM on JAK1.

For the compound `CN(CCCc1ccccc1)S(=O)(=O)N1CCN(c2ncnc3[nH]ccc23)CC12CC2` [Example 10, 7-(7H-Pyrrolo[2,3-d]pyrimidin-4-yl)-4,7-diaza-spiro[2.5]octane-4-sulfonic acid methyl-(3-phenyl-propyl)-amide], the EC50 is more than 500 nM at TYK2, 100 to 500 nM at JAK3, less than 100 nM on JAK2 and less than 100 nM on JAK1.

Take `CC(=O)N(CC1CCS(=O)(=O)C1)S(=O)(=O)N1CCN(c2ncnc3[nH]ccc23)CC12CC2` (centres unmarked) [Example 172, N-[(1,1-dioxothiolan-3-yl)methyl]-N-[[5-(7H-pyrrolo[2,3-d]pyrimidin-4-yl)-5,8-diazaspiro[2.5]octan-8-yl]sulfonyl]acetamide]: the EC50 at TYK2 is 100 to 500 nM; on JAK3, less than 100 nM; on JAK2 it was less than 100 nM; at JAK1, less than 100 nM.

`CN(C)S(=O)(=O)c1ccc(CN(C)S(=O)(=O)N2CCN(c3ncnc4[nH]ccc34)CC23CC3)o1` [Example 65, N-[[5-(dimethylsulfamoyl)-2-furyl]methyl]-N-methyl-5-(7H-pyrrolo[2,3-d]pyrimidin-4-yl)-5,8-diazaspiro[2.5]octane-8-sulfonamide]: the EC50 on TYK2 is 100 to 500 nM; on JAK3, 100 to 500 nM; on JAK2 it was less than 100 nM; at JAK1, less than 100 nM.

Consider `CN(Cc1ccc(C#N)cc1)S(=O)(=O)N1CCN(c2ncnc3[nH]ccc23)CC12CC2` [Example 37, 7-(7H-Pyrrolo[2,3-d]pyrimidin-4-yl)-4,7-diaza-spiro[2.5]octane-4-sulfonic acid (4-cyano-benzyl)-methyl-amide], for which the EC50 at TYK2 is 100 to 500 nM; on JAK3, less than 100 nM; at JAK2, less than 100 nM; on JAK1, less than 100 nM.

`CN(CCn1cccn1)S(=O)(=O)N1CCN(c2ncnc3[nH]ccc23)CC12CC2` [Example 66, N-methyl-N-(2-pyrazol-1-ylethyl)-5-(7H-pyrrolo[2,3-d]pyrimidin-4-yl)-5,8-diazaspiro[2.5]octane-8-sulfonamide]: the EC50 is 100 to 500 nM on TYK2, less than 100 nM on JAK3, less than 100 nM at JAK2 and less than 100 nM at JAK1.

Regarding `O=S(=O)(N(CCO)CCO)N1CCN(c2ncnc3[nH]ccc23)CC12CC2` [Example 54, 7-(7H-Pyrrolo[2,3-d]pyrimidin-4-yl)-4,7-diaza-spiro[2.5]octane-4-sulfonic acid bis-(2-hydroxy-ethyl)-amide], the EC50 at TYK2 is 100 to 500 nM; on JAK3 it was less than 100 nM; at JAK2, less than 100 nM; at JAK1, less than 100 nM.

For the compound `CN(OCc1ccccc1)S(=O)(=O)N1CCN(c2ncnc3[nH]ccc23)CC12CC2` [Example 174, N-benzyloxy-N-methyl-5-(7H-pyrrolo[2,3-d]pyrimidin-4-yl)-5,8-diazaspiro[2.5]octane-8-sulfonamide], the EC50 was 100 to 500 nM on TYK2, 100 to 500 nM on JAK3, less than 100 nM on JAK2 and less than 100 nM at JAK1.

As for `CN(CC1CCCCO1)S(=O)(=O)N1CCN(c2ncnc3[nH]ccc23)CC12CC2` (centres unmarked) [Example 64, N-methyl-5-(7H-pyrrolo[2,3-d]pyrimidin-4-yl)-N-(tetrahydropyran-2-ylmethyl)-5,8-diazaspiro[2.5]octane-8-sulfonamide], the EC50 on TYK2 is 100 to 500 nM; on JAK3, 100 to 500 nM; at JAK2 it was less than 100 nM; at JAK1 it was less than 100 nM.

Consider `N#CCN(CCO)S(=O)(=O)N1CCN(c2ncnc3[nH]ccc23)CC12CC2` [Example 108, N-(cyanomethyl)-N-(2-hydroxyethyl)-5-(7H-pyrrolo[2,3-d]pyrimidin-4-yl)-5,8-diazaspiro[2.5]octane-8-sulfonamide], for which the EC50 is 100 to 500 nM at TYK2, less than 100 nM on JAK3, less than 100 nM at JAK2 and less than 100 nM at JAK1.

Consider `O=S(=O)(N(CC1CCC(F)(F)CC1)CC1CCC(F)(F)CC1)N1CCN(c2ncnc3[nH]ccc23)CC12CC2` [Example 150, N,N-bis[(4,4-difluorocyclohexyl)methyl]-5-(7H-pyrrolo[2,3-d]pyrimidin-4-yl)-5,8-diazaspiro[2.5]octane-8-sulfonamide], for which the EC50 is more than 500 nM on TYK2, 100 to 500 nM at JAK3, less than 100 nM on JAK2 and 100 to 500 nM on JAK1.
